Source: patent publication US4237273A, “Bis(nitrosoureido)-polyol derivatives” (Richter Gedeon Vegyeszeti Gyar RT, priority 1977, dated 1980)
Like-named read-outs stand apart in the source and are kept apart here.

Experiments:
[1] = Acute toxicity (LD50), 21 days observation; assay type: in vivo; details: mouse, in vivo, BDF1 mice of both sexes
Description: Species: BDF1 mice of both sexes
Treatment: a volume of 0.2 ml./10 g. body weight of a suspension of the tested compounds in water containing 2% of Tween-80 was used.
Number of animals: 10/dose
Observation time: 21 days

Yoshida s.c. sarcoma = assay: Antitumour activity, Yoshida s.c. sarcoma, tumour weight (Table 3); assay type: in vivo, CFY rats; details: from the 2nd day
Description: (§1) The leukemia and ascites type tumours were transplanted intraperitoneally, using an amount of 10^5 -10^7 cells, while in the case of solid tumours, small pieces of tumours were implanted subcutaneously with a trocar. Treatment:
(§2) Mice were treated with a volume of 0.1 ml./10 g. body-weight of a suspension of the tested compounds in water containing 2% of Tween-80, while rats were treated with a volume of 0.1 ml./100 g. bodyweight of a suspension of the tested compounds in water containing 5% of Tween-80.
(§3) In the case of solid tumours (Harding-Passey melanoma, S-180 and Yoshida sarcoma) the tumours were removed on the 8 to 14th day, and the inhibition was calculated by the weight of the tumours, using the following formula: [formula]

Rausher leukemia = assay: Antitumour activity, Rauscher leukemia, spleen weight (Table 3); assay type: in vivo, CFLP mice; details: from the 2nd day
Description: as §1, §2, §3
A similar method was applied in the case of the Rauscher leukemia too, but the weight of the spleen was taken, instead of the tumour, in the formula mentioned above.

[2] = tested on: Ehrlich ascites carcinoma; assay: Duration of activity: total cell number in Ehrlich ascites carcinoma; assay type: in vivo, Mice; details: i.p. on the 6th day after transplantation, equitoxic doses
Description: (§4) Mice, being infected with Ehrlich ascites carcinoma, were treated intraperitoneally on the 6th day after transplantation with equitoxic doses of compounds 1, 2 and 6. The duration of the activity was investigated by determining the total cell number and the way of action by determining the mitosis index* and the thymidine index**. It could be shown that both compounds 1 and 2 inhibit the increase of the total cell number for 35 days, while a similar inhibition of the reference compound 6 lasts only for 17 days. As far as the quality of the activity is concerned, compounds 1 and 2 decrease the mitosis-index and the thymidine index in 24 hours by 90%, while in the case of compound 6 the decrease amounts only to 45 to 50%, and the maximum is reached on the 4th day.

P-388 leukemia = assay: Antitumour activity, P-388 leukemia (Table 2); assay type: in vivo, BDF1 mice; details: from the 2nd day; for Recovery (90 day survival): animals recovered/treated
Description: as §1, §2
(§5) The ascites and leukemia-type tumours were evaluated with the exception of the Rausher leukemia by the increase of the life span and by complete recovery. [formula]
(§6) Recovery=90 days of tumour free life after transplantation.

NK/Ly ascites lymphoma = assay: Antitumour activity, NK/Ly ascites lymphoma (Table 2); assay type: in vivo, CFLP mice; details: from the 2nd day; for Recovery (90 day survival): animals recovered/treated
Description: as §1, §2, §5, §6

[3] = tested on: Developed Yoshida s.c. sarcoma; assay: Recovery from developed Yoshida s.c. sarcoma, treated on 6th day (Table 4); assay type: in vivo, CFY rats; details: for Recovery (90 day survival): 30 mg./kg. 1× i.p. on 6th day, animals recovered/treated
Description: as §1, §2, §6

Harding-Passey melanoma = assay: Antitumour activity, Harding-Passey melanoma, tumour weight (Table 3); assay type: in vivo, CFLP mice; details: from the 4th day after transplantation
Description: as §1, §2, §3

S-180 s.c. sarcoma = assay: Antitumour activity, S-180 s.c. sarcoma, tumour weight (Table 3); assay type: in vivo, CFLP mice; details: from the 2nd day
Description: as §1, §2, §3

[4] = tested on: Ehrlich ascites carcinoma; assay: Way of activity: mitosis index in Ehrlich ascites carcinoma; assay type: in vivo, Mice; details: i.p. on 6th day, equitoxic doses
Description: as §4
*mitosis index=number of dividing cells/1000 tumour cells

Ehrlich acites carcinoma = assay: Antitumour activity, Ehrlich ascites carcinoma (Table 2); assay type: in vivo, CFLP mice; details: from the 2nd day; for Recovery (90 day survival): animals recovered/treated
Description: as §1, §2, §5, §6

[5] = tested on: Ehrlich ascites carcinoma; assay: Way of activity: thymidine index (3H-thymidine incorporation into DNS) in Ehrlich ascites carcinoma; assay type: in vivo, Mice; details: i.p. on 6th day, equitoxic doses
Description: as §4
**thymidine index=^3 H-thymidine incorporation into the DNS of the tumour cell.

L-120 leukemia = assay: Antitumour activity, L-1210 leukemia (Table 2); assay type: in vivo, BDF1 mice; details: for Increase in life span / Recovery (90 day survival): from the 2nd day; for Recovery (90 day survival): animals recovered/treated
Description: as §1, §2, §5, §6

[6] = ip, i.p., read-out: LD50 value i.p.
[7] = po, p.o., read-out: LD50 value p.o.

Row | Compound | LD50 at 504 h [1, 6] | LD50 at 504 h [1, 7] | Inhibition (tumour weight) (Yoshida s.c. sarcoma; 3 mg./kg. 4× p.o.) | Inhibition (tumour weight) (Yoshida s.c. sarcoma; 10 mg./kg. 4× i.p.) | Inhibition (spleen weight) (Rausher leukemia; 10.0 mg./kg. 4× i.p.) | Inhibition (spleen weight) (Rausher leukemia; 10.0 mg./kg. 4× p.o.) | Duration of inhibition of the increase of the total cell number [2] | Recovery (90 day survival) (NK/Ly ascites lymphoma; 0.3 mg./kg. 4× i.p.) | Recovery (90 day survival) [3] | Inhibition (tumour weight) (Harding-Passey melanoma; 10.0 mg./kg. 9× p.o.) | Inhibition (tumour weight) (S-180 s.c. sarcoma; 10.0 mg./kg. 5× i.p.) | Increase in life span (Ehrlich acites carcinoma; 1.0 mg./kg. 5× i.p.) | Recovery (90 day survival) (Ehrlich acites carcinoma; 1.0 mg./kg. 5× i.p.) | Increase in life span (L-120 leukemia; 3.0 mg./kg. 4× i.p.) | Recovery (90 day survival) (L-120 leukemia; 3.0 mg./kg. 4× i.p.) | Increase in life span (L-120 leukemia; 10.0 mg./kg. 4× i.p.) | Recovery (90 day survival) (L-120 leukemia; 10.0 mg./kg. 4× i.p.) | Increase in life span (P-388 leukemia; 3.0 mg./kg. 4× i.p.) | Recovery (90 day survival) (P-388 leukemia; 3.0 mg./kg. 4× i.p.) | Inhibition (tumour weight) (Harding-Passey melanoma; 3.0 mg./kg. 9× i.p.) | further results
1 | O=NN(CCCl)C(=O)NC[C@@H](O)[C@H](O)CN(N=O)C(=O)NCCCl (racemic) [Compound 4, 1-[3-(2-chloroethyl)-3-nitrosoureido]-4-[3-(2-chloroethyl)-1-nitrosoureido]-1,4-dideoxy-D,L-threitol] | 80 mg/kg | 130 mg/kg | 50% | 82% | 100% | 100% |  |  |  |  |  |  |  |  |  |  |  |  |  |  | 
2 | O=NN(CCCl)C(=O)NC[C@@H](O)[C@H](O)CNC(=O)N(CCCl)N=O (racemic) [Compound 5, 1,4-bis[3-(2-chloroethyl)-3-nitrosoureido]-1,4-dideoxy-D,L-threitol] | 40 mg/kg | 75 mg/kg | 62% |  |  | 100% |  |  |  |  |  |  |  |  |  |  |  |  |  |  | Inhibition (tumour weight) (Yoshida s.c. sarcoma; 10 mg./kg. 2× p.o.): 99%; Inhibition (spleen weight) (Rausher leukemia; 3.0 mg./kg. 4× i.p.): 75%
3 | O=NN(CCCl)C(=O)NC[C@@H](O)[C@@H](O)[C@H](O)[C@H](O)CNC(=O)N(CCCl)N=O [Compound 2, 1,6-bis[3-(3-chloroethyl)-N-nitrosoureido]-1,6-dideoxy-D-mannitol] | 110 mg/kg | 250 mg/kg |  | 84% | 86% |  | 35 days | 6/7 | 4/7 | 59% | 56% | 96% | 4/7 | 158% | 3/10 | 140% | 8/10 |  |  |  | Inhibition (tumour weight) (Yoshida s.c. sarcoma; 30 mg./kg. 4× p.o.): 75%; Increase in life span (P-388 leukemia; 10.0 mg./kg. 4× i.p.): 131%; Recovery (90 day survival) (P-388 leukemia; 10.0 mg./kg. 4× i.p.): 0/8; Inhibition (tumour weight) (Harding-Passey melanoma; 10.0 mg./kg. 9× i.p.): 42%; Inhibition (tumour weight) (S-180 s.c. sarcoma; 30.0 mg./kg. 5× p.o.): 51%; Decrease of the mitosis-index ([4]; in 24 hours): 90%; Decrease of the thymidine index ([5]; in 24 hours): 90%; Increase in life span (L-120 leukemia; 1.0 mg./kg. 4× i.p.): 58%; Recovery (90 day survival) (L-120 leukemia; 1.0 mg./kg. 4× i.p.): 0/10
4 | O=NN(CCCl)C(=O)N[C@H]1C[C@@H](NC(=O)N(CCCl)N=O)[C@H](O)[C@@H](O)[C@@H]1O [Compound 3, 1,3-bis[3-(2-chloroethyl)-N-nitriosoureido]-1,2,3-trideoxyscylloinositol] | 40 mg/kg | 100 mg/kg |  | 86% |  |  |  |  |  | 38% |  | 46% | 2/7 |  |  |  |  | 101% | 0/8 | 54% | Recovery (90 day survival) (NK/Ly ascites lymphoma; 0.1 mg./kg. 4× (route not given)): 7/7; Increase in life span (NK/Ly ascites lymphoma; 10.0 mg./kg. 4× p.o.): 61%; Recovery (90 day survival) (NK/Ly ascites lymphoma; 10.0 mg./kg. 4× p.o.): 1/7; Inhibition (spleen weight) (Rausher leukemia; 10.0 mg./kg. 6× i.p.): 100%; Increase in life span (L-120 leukemia; 10.0 mg./kg. 4× p.o.): 61%; Recovery (90 day survival) (L-120 leukemia; 10.0 mg./kg. 4× p.o.): 1/7; Increase in life span (L-120 leukemia; 15.0 mg./kg. 1× i.p.): 180%; Recovery (90 day survival) (L-120 leukemia; 15.0 mg./kg. 1× i.p.): 5/8
5 | O=NN(CCCl)C(=O)NCCCl [Compound 6, 1,3-bis(2-chloroethyl)-1-nitrosourea, reference compound] | 36 mg/kg | 40 mg/kg | 45% | 95% |  |  | 17 days | 0/7 | 0/7 |  | 65% |  |  | 40% | 0/8 | 405% | 6/7 | 51% | 0/8 | 64% | Inhibition (tumour weight) (Yoshida s.c. sarcoma; 10 mg./kg. 4× p.o.): 100%; Recovery (90 day survival) (NK/Ly ascites lymphoma; 1.0 mg./kg. 4× i.p.): 5/7; Recovery (90 day survival) (NK/Ly ascites lymphoma; 3.0 mg./kg. 4× i.p.): 7/7; Cure of Yoshida subcutaneous sarcoma, in words ([3]; single dose on the 6th day): inactive; Inhibition (tumour weight) (Harding-Passey melanoma; 3.0 mg./kg. 9× p.o.): 71%; Inhibition (tumour weight) (S-180 s.c. sarcoma; 10.0 mg./kg. 5× p.o.): 32%; Day on which the maximum decrease of the mitosis-index is reached [4]: 4 days; Increase in life span (Ehrlich acites carcinoma; 3.0 mg./kg. 5× i.p.): 60%; Recovery (90 day survival) (Ehrlich acites carcinoma; 3.0 mg./kg. 5× i.p.): 1/6; Inhibition (spleen weight) (Rausher leukemia; 10.0 mg./kg. 6× i.p.): 97%; Day on which the maximum decrease of the thymidine index is reached [5]: 4 days; Increase in life span (L-120 leukemia; 10.0 mg./kg. 4× p.o.): 106%; Recovery (90 day survival) (L-120 leukemia; 10.0 mg./kg. 4× p.o.): 1/8; Increase in life span (L-120 leukemia; 24.0 mg./kg. 1× p.o.): 48%; Recovery (90 day survival) (L-120 leukemia; 24.0 mg./kg. 1× p.o.): 0/8; Activity on L-1210 leukemia on oral application, in words (L-120 leukemia; oral): only an unsignificant oral activity
